Experimental data from the kinase profiling compilation of Christmann-Franck et al. (2016).

How the values were obtained:
Test in all cases: radiometric filter-binding kinase assay, Kinase HotSpot
Details in all cases: compound 0.5 µM; ATP 10 µM
DSTYK (human) = DSTYK (human) (UniProt Q6XUX3)
RAF1 (human) = RAF1 (human) (UniProt P04049)
TTK (human) = TTK (human) (UniProt P33981)
STK11 (human) = STK11 (human) (UniProt Q15831)
CSK (human) = CSK (human) (UniProt P41240)
SRPK2 (human) = SRPK2 (human) (UniProt P78362)
Sequence of SRPK2 (human) (P78362 whole entry, looked up): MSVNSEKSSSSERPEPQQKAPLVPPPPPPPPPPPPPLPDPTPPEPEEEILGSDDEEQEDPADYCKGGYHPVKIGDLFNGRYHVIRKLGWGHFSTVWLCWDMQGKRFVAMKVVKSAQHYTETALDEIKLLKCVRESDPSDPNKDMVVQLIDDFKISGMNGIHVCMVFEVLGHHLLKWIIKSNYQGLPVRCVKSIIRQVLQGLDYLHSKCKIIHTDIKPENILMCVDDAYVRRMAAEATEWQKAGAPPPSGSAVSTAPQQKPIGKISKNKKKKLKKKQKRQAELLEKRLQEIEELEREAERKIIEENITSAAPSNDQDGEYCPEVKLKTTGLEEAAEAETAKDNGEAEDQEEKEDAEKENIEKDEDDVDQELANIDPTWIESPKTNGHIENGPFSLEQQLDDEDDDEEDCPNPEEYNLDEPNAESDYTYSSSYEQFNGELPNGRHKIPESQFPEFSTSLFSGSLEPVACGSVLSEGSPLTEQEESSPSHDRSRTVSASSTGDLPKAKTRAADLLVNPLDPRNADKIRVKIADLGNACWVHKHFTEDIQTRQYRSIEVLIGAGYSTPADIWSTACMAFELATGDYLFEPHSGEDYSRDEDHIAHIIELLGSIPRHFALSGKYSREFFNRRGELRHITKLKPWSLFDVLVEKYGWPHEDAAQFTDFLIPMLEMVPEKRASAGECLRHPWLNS

DYRK4 (human) = DYRK4 (human) (UniProt Q9NR20)
PTK2B (human) = PTK2B (human) (UniProt Q14289)
FGFR4 (human) = FGFR4 (human) (UniProt P22455)
CDK9 CCNK (human) = CDK9 CCNK (human) (UniProt O75909+P50750)
CLK3 (human) = CLK3 (human) (UniProt P49761)
DYRK3 (human) = DYRK3 (human) (UniProt O43781)
LRRK2 (human) = LRRK2 (human) (UniProt Q5S007)
PRKD1 (human) = PRKD1 (human) (UniProt Q15139)
ROCK1 (human) = ROCK1 (human) (UniProt Q13464)
CDK5 CDK5R1 p35 (human) = CDK5 CDK5R1 p35 (human) (UniProt Q00535+Q15078)
CDK6 CCND3 (human) = CDK6 CCND3 (human) (UniProt P30281+Q00534)
DAPK3 (human) = DAPK3 (human) (UniProt O43293)
CHUK (human) = CHUK (human) (UniProt O15111)
CSNK1G2 (human) = CSNK1G2 (human) (UniProt P78368)
Sequence of CSNK1G2 (human) (P78368 whole entry, looked up): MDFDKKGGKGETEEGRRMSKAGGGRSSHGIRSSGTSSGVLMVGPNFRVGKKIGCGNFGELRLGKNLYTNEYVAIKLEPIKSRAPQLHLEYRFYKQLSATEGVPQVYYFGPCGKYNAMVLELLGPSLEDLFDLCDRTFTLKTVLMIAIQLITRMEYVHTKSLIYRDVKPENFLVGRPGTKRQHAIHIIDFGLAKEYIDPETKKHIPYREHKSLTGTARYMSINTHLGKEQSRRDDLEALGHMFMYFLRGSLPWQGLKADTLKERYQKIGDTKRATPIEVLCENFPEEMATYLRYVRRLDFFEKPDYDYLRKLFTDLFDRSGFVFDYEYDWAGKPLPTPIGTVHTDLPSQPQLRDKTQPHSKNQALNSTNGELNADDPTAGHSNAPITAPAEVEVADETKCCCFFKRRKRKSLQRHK

CAMKK2 (human) = CAMKK2 (human) (UniProt Q96RR4)
Sequence of CAMKK2 (human) (Q96RR4 whole entry, looked up): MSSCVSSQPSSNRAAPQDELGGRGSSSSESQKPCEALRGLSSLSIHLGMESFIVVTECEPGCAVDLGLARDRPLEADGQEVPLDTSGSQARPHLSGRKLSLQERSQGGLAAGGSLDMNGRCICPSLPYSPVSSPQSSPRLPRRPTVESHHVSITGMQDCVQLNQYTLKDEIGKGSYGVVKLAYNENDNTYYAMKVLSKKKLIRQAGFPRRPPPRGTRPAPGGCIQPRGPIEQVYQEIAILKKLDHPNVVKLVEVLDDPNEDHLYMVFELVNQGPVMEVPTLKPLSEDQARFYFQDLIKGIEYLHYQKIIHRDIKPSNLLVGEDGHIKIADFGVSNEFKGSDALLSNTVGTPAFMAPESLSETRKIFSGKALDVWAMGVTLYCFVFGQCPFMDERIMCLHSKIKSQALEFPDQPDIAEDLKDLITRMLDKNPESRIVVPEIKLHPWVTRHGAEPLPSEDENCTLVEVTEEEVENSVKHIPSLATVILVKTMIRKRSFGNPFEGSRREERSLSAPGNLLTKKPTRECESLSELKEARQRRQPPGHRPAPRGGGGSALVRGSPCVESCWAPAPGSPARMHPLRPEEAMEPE

SYK (human) = SYK (human) (UniProt P43405)
AURKB (human) = AURKB (human) (UniProt Q96GD4)
PRKD2 (human) = PRKD2 (human) (UniProt Q9BZL6)
DYRK1A (human) = DYRK1A (human) (UniProt Q13627)
MLTK (human) = MLTK (human) (UniProt Q9NYL2)
STK39 (human) = STK39 (human) (UniProt Q9UEW8)
SRMS (human) = SRMS (human) (UniProt Q9H3Y6)
PKN2 (human) = PKN2 (human) (UniProt Q16513)
CSNK2A1 (human) = CSNK2A1 (human) (UniProt P68400)
ACVR1B (human) = ACVR1B (human) (UniProt P36896)
MAP3K9 (human) = MAP3K9 (human) (UniProt P80192)
Sequence of MAP3K9 (human) (P80192 whole entry, looked up): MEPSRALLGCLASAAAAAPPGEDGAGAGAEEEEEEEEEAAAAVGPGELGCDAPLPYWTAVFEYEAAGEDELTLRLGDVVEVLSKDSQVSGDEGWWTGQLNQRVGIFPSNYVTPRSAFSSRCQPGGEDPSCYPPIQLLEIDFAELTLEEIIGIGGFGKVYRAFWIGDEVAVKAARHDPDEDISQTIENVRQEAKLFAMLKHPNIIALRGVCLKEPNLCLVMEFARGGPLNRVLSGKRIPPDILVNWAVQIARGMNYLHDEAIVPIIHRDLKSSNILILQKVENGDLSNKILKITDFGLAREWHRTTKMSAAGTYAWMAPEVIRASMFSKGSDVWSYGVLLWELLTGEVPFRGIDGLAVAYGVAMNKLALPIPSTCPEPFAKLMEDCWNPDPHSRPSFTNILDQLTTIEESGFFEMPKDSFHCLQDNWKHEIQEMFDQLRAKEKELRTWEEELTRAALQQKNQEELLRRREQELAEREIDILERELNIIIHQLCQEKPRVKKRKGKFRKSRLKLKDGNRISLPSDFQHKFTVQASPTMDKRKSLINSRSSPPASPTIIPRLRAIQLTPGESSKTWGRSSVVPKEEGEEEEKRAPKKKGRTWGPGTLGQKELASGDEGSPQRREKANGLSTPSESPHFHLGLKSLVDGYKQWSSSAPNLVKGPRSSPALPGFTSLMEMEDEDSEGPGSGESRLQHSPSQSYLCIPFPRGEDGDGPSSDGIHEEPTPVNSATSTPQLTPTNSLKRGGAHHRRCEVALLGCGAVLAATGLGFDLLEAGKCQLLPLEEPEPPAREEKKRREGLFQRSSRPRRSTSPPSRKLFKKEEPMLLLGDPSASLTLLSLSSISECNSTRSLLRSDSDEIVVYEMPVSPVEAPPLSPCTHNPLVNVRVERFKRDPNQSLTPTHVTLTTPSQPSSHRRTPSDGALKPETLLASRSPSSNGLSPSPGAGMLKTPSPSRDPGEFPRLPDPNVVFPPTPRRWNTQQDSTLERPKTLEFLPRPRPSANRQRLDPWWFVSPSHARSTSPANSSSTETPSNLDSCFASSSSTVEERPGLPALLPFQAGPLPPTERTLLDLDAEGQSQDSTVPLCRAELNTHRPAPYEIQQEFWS

MST4 (human) = MST4 (human) (UniProt Q9P289)
ITK (human) = ITK (human) (UniProt Q08881)
GRK5 (human) = GRK5 (human) (UniProt P34947)
HCK (human) = HCK (human) (UniProt P08631)
Sequence of HCK (human) (P08631 whole entry, looked up): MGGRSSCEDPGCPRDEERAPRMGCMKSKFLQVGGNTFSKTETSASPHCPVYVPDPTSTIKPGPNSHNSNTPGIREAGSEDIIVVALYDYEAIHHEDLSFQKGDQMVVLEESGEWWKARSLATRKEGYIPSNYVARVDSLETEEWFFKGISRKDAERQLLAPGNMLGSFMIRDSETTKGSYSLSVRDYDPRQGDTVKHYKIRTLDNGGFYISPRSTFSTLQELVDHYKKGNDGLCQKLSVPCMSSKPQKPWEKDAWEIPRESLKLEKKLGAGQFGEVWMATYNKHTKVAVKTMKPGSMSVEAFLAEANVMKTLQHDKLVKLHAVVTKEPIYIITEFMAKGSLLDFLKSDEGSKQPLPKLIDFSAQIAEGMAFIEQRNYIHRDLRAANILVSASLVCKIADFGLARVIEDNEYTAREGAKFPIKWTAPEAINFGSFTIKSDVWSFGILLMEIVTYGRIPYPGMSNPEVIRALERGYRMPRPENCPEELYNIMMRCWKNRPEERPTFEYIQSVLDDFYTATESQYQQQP

INSRR (human) = INSRR (human) (UniProt P14616)
Sequence of INSRR (human) (P14616 whole entry, looked up): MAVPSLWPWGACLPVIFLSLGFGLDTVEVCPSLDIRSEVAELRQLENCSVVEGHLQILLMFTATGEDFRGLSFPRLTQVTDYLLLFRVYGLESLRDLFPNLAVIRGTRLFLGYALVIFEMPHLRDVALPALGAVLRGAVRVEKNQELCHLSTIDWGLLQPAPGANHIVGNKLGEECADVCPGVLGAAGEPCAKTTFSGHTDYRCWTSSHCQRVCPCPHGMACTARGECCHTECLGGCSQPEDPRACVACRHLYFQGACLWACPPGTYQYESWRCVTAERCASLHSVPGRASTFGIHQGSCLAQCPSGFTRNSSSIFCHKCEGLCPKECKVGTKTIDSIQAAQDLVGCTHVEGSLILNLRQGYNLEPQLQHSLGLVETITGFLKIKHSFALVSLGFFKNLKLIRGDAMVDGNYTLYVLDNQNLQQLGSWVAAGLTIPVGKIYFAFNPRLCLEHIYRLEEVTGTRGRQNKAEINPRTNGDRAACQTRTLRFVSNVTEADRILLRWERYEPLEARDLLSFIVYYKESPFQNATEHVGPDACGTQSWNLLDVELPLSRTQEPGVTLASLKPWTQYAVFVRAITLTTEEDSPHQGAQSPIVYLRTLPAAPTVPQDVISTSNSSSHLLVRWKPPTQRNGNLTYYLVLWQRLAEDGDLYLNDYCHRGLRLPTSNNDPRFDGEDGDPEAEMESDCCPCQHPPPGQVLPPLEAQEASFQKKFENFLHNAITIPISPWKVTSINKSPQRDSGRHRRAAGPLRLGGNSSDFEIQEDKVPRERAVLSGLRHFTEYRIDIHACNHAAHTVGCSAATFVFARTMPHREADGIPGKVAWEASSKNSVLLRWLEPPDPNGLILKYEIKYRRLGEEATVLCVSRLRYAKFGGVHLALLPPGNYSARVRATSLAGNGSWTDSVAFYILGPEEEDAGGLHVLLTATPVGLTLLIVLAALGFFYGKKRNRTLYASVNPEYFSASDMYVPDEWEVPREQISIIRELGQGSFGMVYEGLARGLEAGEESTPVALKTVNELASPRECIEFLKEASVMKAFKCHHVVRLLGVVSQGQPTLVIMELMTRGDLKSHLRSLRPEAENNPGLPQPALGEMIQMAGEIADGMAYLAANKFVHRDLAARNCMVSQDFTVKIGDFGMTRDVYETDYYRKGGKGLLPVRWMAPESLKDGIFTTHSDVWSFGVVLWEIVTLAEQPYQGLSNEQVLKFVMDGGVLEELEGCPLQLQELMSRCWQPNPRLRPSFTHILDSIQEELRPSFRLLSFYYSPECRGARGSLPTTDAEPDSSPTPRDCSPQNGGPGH

PRKACA (human) = PRKACA (human) (UniProt P17612)
MARK1 (human) = MARK1 (human) (UniProt Q9P0L2)
PHKG1 (human) = PHKG1 (human) (UniProt Q16816)
TAOK3 (human) = TAOK3 (human) (UniProt Q9H2K8)
[1] = biological target: JAK1 JH1 catalytic (human) (UniProt P23458)

Sequence of CSK (human) (P41240 whole entry, looked up): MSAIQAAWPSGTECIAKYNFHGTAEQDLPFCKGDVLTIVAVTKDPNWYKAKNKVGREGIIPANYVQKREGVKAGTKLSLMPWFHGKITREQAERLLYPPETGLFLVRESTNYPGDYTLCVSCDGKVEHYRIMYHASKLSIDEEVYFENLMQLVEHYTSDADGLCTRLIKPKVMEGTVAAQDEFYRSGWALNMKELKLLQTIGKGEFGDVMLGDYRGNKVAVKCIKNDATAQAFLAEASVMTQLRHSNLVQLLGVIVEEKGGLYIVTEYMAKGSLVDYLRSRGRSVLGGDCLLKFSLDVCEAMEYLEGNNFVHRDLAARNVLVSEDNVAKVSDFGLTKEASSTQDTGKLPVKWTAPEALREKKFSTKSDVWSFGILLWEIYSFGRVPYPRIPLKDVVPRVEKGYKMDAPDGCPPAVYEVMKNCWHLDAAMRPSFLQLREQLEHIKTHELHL

## Clc1ccc(Nc2nnc(Cc3ccncc3)c3ccccc23)cc1
DSTYK (human)
  residual activity: 96.5%
RAF1 (human)
  residual activity: 93.3%
TTK (human)
  residual activity: 108%
STK11 (human)
  residual activity: 97.3%
CSK (human)
  residual activity: 87.6%
SRPK2 (human)
  residual activity: 96.5%
DYRK4 (human)
  residual activity: 97.5%
PTK2B (human)
  residual activity: 102%
FGFR4 (human)
  residual activity: 95.8%
CDK9 CCNK (human)
  residual activity: 104%
CLK3 (human)
  residual activity: 105%
DYRK3 (human)
  residual activity: 95.9%
LRRK2 (human)
  residual activity: 74.8%
PRKD1 (human)
  residual activity: 101%
ROCK1 (human)
  residual activity: 110%
CDK5 CDK5R1 p35 (human)
  residual activity: 97.2%
CDK6 CCND3 (human)
  residual activity: 125%
DAPK3 (human)
  residual activity: 107%
CHUK (human)
  residual activity: 104%
CSNK1G2 (human)
  residual activity: 98.2%
CAMKK2 (human)
  residual activity: 100%
SYK (human)
  residual activity: 114%
AURKB (human)
  residual activity: 90%
PRKD2 (human)
  residual activity: 86%
DYRK1A (human)
  residual activity: 102%
MLTK (human)
  residual activity: 90.3%
STK39 (human)
  residual activity: 92.6%
SRMS (human)
  residual activity: 91.8%
PKN2 (human)
  residual activity: 99.9%
CSNK2A1 (human)
  residual activity: 114%
ACVR1B (human)
  residual activity: 108%
MAP3K9 (human)
  residual activity: 113%
MST4 (human)
  residual activity: 118%
ITK (human)
  residual activity: 103%
GRK5 (human)
  residual activity: 110%
HCK (human)
  residual activity: 89.5%
INSRR (human)
  residual activity: 93.5%
PRKACA (human)
  residual activity: 98.1%
MARK1 (human)
  residual activity: 124%
PHKG1 (human)
  residual activity: 94.2%
TAOK3 (human)
  residual activity: 99.9%
[1]
  residual activity: 107%

## COc1cc2nccc(Oc3ccc(NC(=S)NC(=O)c4ccccc4C)cc3)c2cc1OC
DSTYK (human)
  residual activity: 112%
RAF1 (human)
  residual activity: 97%
TTK (human)
  residual activity: 101%
STK11 (human)
  residual activity: 106%
CSK (human)
  residual activity: 75.3%
SRPK2 (human)
  residual activity: 93.4%
DYRK4 (human)
  residual activity: 92.7%
PTK2B (human)
  residual activity: 93.4%
FGFR4 (human)
  residual activity: 92.9%
CDK9 CCNK (human)
  residual activity: 108%
CLK3 (human)
  residual activity: 93.2%
DYRK3 (human)
  residual activity: 90.8%
LRRK2 (human)
  residual activity: 94.4%
PRKD1 (human)
  residual activity: 137%
ROCK1 (human)
  residual activity: 90.5%
CDK5 CDK5R1 p35 (human)
  residual activity: 100%
CDK6 CCND3 (human)
  residual activity: 97.3%
DAPK3 (human)
  residual activity: 75.4%
CHUK (human)
  residual activity: 98.3%
CSNK1G2 (human)
  residual activity: 106%
CAMKK2 (human)
  residual activity: 75%
SYK (human)
  residual activity: 95.5%
AURKB (human)
  residual activity: 4.31%
PRKD2 (human)
  residual activity: 86.8%
DYRK1A (human)
  residual activity: 95.4%
MLTK (human)
  residual activity: 71.7%
STK39 (human)
  residual activity: 91.5%
SRMS (human)
  residual activity: 111%
PKN2 (human)
  residual activity: 109%
CSNK2A1 (human)
  residual activity: 98.9%
ACVR1B (human)
  residual activity: 92.1%
MAP3K9 (human)
  residual activity: 99.3%
MST4 (human)
  residual activity: 101%
ITK (human)
  residual activity: 80.6%
GRK5 (human)
  residual activity: 98.8%
HCK (human)
  residual activity: 4.93%
INSRR (human)
  residual activity: 98.2%
PRKACA (human)
  residual activity: 91.8%
MARK1 (human)
  residual activity: 91.4%
PHKG1 (human)
  residual activity: 89.2%
TAOK3 (human)
  residual activity: 87.9%
[1]
  residual activity: 96.7%

## Cc1cc2ncc(-c3ccccc3)nc2cc1C
DSTYK (human)
  residual activity: 95.5%
RAF1 (human)
  residual activity: 95.6%
TTK (human)
  residual activity: 91%
STK11 (human)
  residual activity: 94%
CSK (human)
  residual activity: 96.5%
SRPK2 (human)
  residual activity: 95.3%
DYRK4 (human)
  residual activity: 90.3%
PTK2B (human)
  residual activity: 92.1%
FGFR4 (human)
  residual activity: 77.2%
CDK9 CCNK (human)
  residual activity: 101%
CLK3 (human)
  residual activity: 92.8%
DYRK3 (human)
  residual activity: 89.2%
LRRK2 (human)
  residual activity: 94.4%
PRKD1 (human)
  residual activity: 100%
ROCK1 (human)
  residual activity: 100%
CDK5 CDK5R1 p35 (human)
  residual activity: 89.1%
CDK6 CCND3 (human)
  residual activity: 86.7%
DAPK3 (human)
  residual activity: 90.3%
CHUK (human)
  residual activity: 86.9%
CSNK1G2 (human)
  residual activity: 86.5%
CAMKK2 (human)
  residual activity: 91.8%
SYK (human)
  residual activity: 97.4%
AURKB (human)
  residual activity: 85.4%
PRKD2 (human)
  residual activity: 96.5%
DYRK1A (human)
  residual activity: 89.9%
MLTK (human)
  residual activity: 102%
STK39 (human)
  residual activity: 103%
SRMS (human)
  residual activity: 93.5%
PKN2 (human)
  residual activity: 104%
CSNK2A1 (human)
  residual activity: 102%
ACVR1B (human)
  residual activity: 97.7%
MAP3K9 (human)
  residual activity: 92.6%
MST4 (human)
  residual activity: 97.6%
ITK (human)
  residual activity: 100%
GRK5 (human)
  residual activity: 107%
HCK (human)
  residual activity: 90.1%
INSRR (human)
  residual activity: 95.5%
PRKACA (human)
  residual activity: 108%
MARK1 (human)
  residual activity: 106%
PHKG1 (human)
  residual activity: 97.4%
TAOK3 (human)
  residual activity: 96.2%
[1]
  residual activity: 103%

## Nc1nc(Nc2ccc(S(N)(=O)=O)cc2)nn1C(=S)Nc1c(F)cccc1F
DSTYK (human)
  residual activity: 17.8%
RAF1 (human)
  residual activity: 110%
TTK (human)
  residual activity: 60.6%
STK11 (human)
  residual activity: 23.5%
CSK (human)
  residual activity: 76.8%
SRPK2 (human)
  residual activity: 17.1%
DYRK4 (human)
  residual activity: 96.5%
PTK2B (human)
  residual activity: 33.6%
FGFR4 (human)
  residual activity: 32.2%
CDK9 CCNK (human)
  residual activity: 7.46%
CLK3 (human)
  residual activity: 4.64%
DYRK3 (human)
  residual activity: 98.5%
LRRK2 (human)
  residual activity: 1.33%
PRKD1 (human)
  residual activity: 7.79%
ROCK1 (human)
  residual activity: 0.17%
CDK5 CDK5R1 p35 (human)
  residual activity: 11.3%
CDK6 CCND3 (human)
  residual activity: 7.69%
DAPK3 (human)
  residual activity: 94.2%
CHUK (human)
  residual activity: 54.4%
CSNK1G2 (human)
  residual activity: 14.8%
CAMKK2 (human)
  residual activity: 5.4%
SYK (human)
  residual activity: 15.5%
AURKB (human)
  residual activity: 12.9%
PRKD2 (human)
  residual activity: 9.05%
DYRK1A (human)
  residual activity: 15.3%
MLTK (human)
  residual activity: 49.1%
STK39 (human)
  residual activity: 76.5%
SRMS (human)
  residual activity: 94%
PKN2 (human)
  residual activity: 19.1%
CSNK2A1 (human)
  residual activity: 76.6%
ACVR1B (human)
  residual activity: 92.2%
MAP3K9 (human)
  residual activity: -0.373%
MST4 (human)
  residual activity: 4.54%
ITK (human)
  residual activity: 61%
GRK5 (human)
  residual activity: 75.6%
HCK (human)
  residual activity: 37.9%
INSRR (human)
  residual activity: 86.5%
PRKACA (human)
  residual activity: 78.2%
MARK1 (human)
  residual activity: 2.68%
PHKG1 (human)
  residual activity: 26%
TAOK3 (human)
  residual activity: 10%
[1]
  residual activity: 4.86%
